From patent US20200087340A1, “LIF/LIFR ANTAGONIST IN ONCOLOGY AND NONMALIGNANT DISEASES” (Evestra, Inc., priority 2018, published 2020)

Assays:
[1] = tested on: Patient derived tumor (melanoma); assay: Immunohistochemistry analysis of treated patient derived tumor; type: cell-based, human; settings: 10 nM and 1 uM for 5 days
Procedure: Patient derived tumor (melanoma) was treated with the compounds at 10 nM and 1 uM for 5 days in RPMI medium and harvested on day 6 using established protocol and immunohistochemistry was performed for different antibodies including p53, LIF, MDM2, pSTAT3, Ki67.

[2] = tested on: human endometrial stromal cells (HESC); assay: Decidualization assay, phalloidin staining of actin cytoskeleton; type: cell-based
Procedure: Decidualization studies: The above compounds were investigated originally for the treatment of endometriosis. The compounds were tested in a decidualization assay using human endometrial stromal fibroblast (HESC) cells. In preparation for the possibility of embryonic attachment, the stromal cells in the endometrium undergo extensive waves of proliferation, remodeling, and terminal differentiation that transforms the endometrium into an endocrine gland, called decidua. This transformation is called decidualization and it is under the control by ovarian hormones.
The level of apoptosis increases from the proliferative phase through menstrual cycle and peaks at menses. […] However if the cells are subjected to conditions that induce decidualization, stromal cells will begin to differentiate instead of undergoing apoptosis.
Rationale of this assay is described above in mechanism of action studies section. Briefly, human stromal endometrial cells were plated in the presence and absence of progesterone and allow undergoing decidualization. The cells treated with test compounds of different concentrations and stained for actin cytocketal morphology using phalloidin staining and monitored under fluorescent microscope.

[3] = tested on: human umbilical vein endothelial cells (HUVEC); assay: Matrigel in vitro HUVECs tube formation assay (angiogenesis); type: cell-based; settings: 1 μM concentration, all measured time points
Procedure: Matrigel in vitro HUVECs tube formation assay: The tube formation assay was performed using 12-well plate coated with 100 μL Matrigel basement membrane matrix (BD Bioscience) per well and polymerized at 37° C. for 30 min. Human umbilical vascular endothelial cells (HUVECs) suspended in M199 medium containing 2% FBS were plated on the Matrigel at a density of 2×10^5 cells/well. […] After 8 h, the Matrigel-induced morphological changes were photographed and the extent of capillary tube formation was evaluated by measuring the total tube length per field.

T47D cells = assay: Soft agar colony formation assay; type: cell-based, human; settings: 100 nM concentration
Procedure: Colonies of cancer cells formed in soft agar in the presence and absence of the testing compounds is a standard assay to interpret in-vitro tumorigenic potential in the basal layer. Agar was prepared by mixing 1% DNA grade agar melted and cooled to 40° C. with an equal volume of (2×) Dulbecco's Modified Eagle's Medium (DMEM) to obtain 0.5% agar that was dispersed in a 6-well plate and allowed to solidify. A total of 0.6% agar was prepared in RPMI medium and mixed together with T47D cells (0.5×10^6 cells/mL) and immediately plated on the basal layer in the presence or absence of testing compounds. The cultures were incubated at 37° C. in a CO2 incubator for 2 weeks, and colonies were stained with 0.005% crystal violet and observed under a light microscope.

MCF-7 cells = assay: P53 / MDM2 levels in MCF-7 cells; type: cell-based, human
[4] = tested on: various cancer cells lines; assay: Cytotoxicity assays in various cancer cell lines; type: cell-based
U251 (Glioma) = assay: Short term (72 h) cytotoxicity assay; type: cell-based; settings: Homo sapiens, U-251; U251, 72 h
[5] = tested on: unmodified MCF-7 human breast cancer cells; assay: LIF specificity assay, cytotoxicity; type: cell-based; settings: MCF7
A549 (Lung cancer) = assay: Short term (72 h) cytotoxicity assay; type: cell-based; settings: Homo sapiens, A549, 72 h
U87-MU (Glioma cells) = assay: Short term (72 h) cytotoxicity assay; type: cell-based; settings: Glioma cell
[6] = tested on: LIF-overexpressing MCF-7 (MCF-7 LIF) human breast cancer cells; assay: LIF specificity assay, cytotoxicity; type: cell-based

SMILES	apoptosis, p53, MDM2, LIF mediated STAT3 phosphorylation (immunohistochemistry) [1]	actin cytoskeletal disruption (phalloidin staining) [2]	tube formation [3]	colonies formed (T47D cells)	P53 levels / MDM2 (MCF-7 cells)	cytotoxicity (IC50's) in cytotoxicity assays [4]	IC50 (U251 (Glioma)) [nM]	IC50 [5] [nM]	IC50 (A549 (Lung cancer)) [nM]	IC50 (U87-MU (Glioma cells)) [nM]	IC50 ([6]; Homo sapiens, MCF7, LIF-overexpressing MCF-7) [nM]	Fold Change ([6]; cytotoxicity MCF-7 vs. MCF-7 LIF (specificity towards LIF))
C#CC(F)(F)[C@]1(O)CCC2C3CCC4=CC(=O)CCC4=C3C(c3ccc(C(C)=O)cc3)C[C@@]21C (stereo partly drawn) [EC332, 17α-(1,1-difluoro-2-propyn-1-yl)-17β-hydroxy-11β-[4-p-(acetyl)phenyl]estra-4,9-dien-3-one]	induce apoptosis and restore p53 by inhibiting MDM2 and LIF mediated STAT3 phosphorylation	cytoskeletal disruption	complete abrogation of tube formation	complete inhibition or no colonies were formed	restore P53 levels by inhibiting MDM2	low nanomolar	–	–	–	–	–	–
C#CC(F)(F)[C@]1(O)CCC2C3CCC4=CC(=O)CCC4=C3C(c3ccc(N(C)C)cc3)C[C@@]21C (stereo partly drawn) [EC352, 17α-(1,1-difluoro-2-propyn-1-yl)-17β-hydroxy-11β-[4-p-(dimethylamino)phenyl]estra-4,9-dien-3-one]	–	–	–	–	–	–	40	> 10000	45	50	> 10000	0
